In patent US20220338471A1, “HONEY BEE-SAFE ACARICIDAL COMPOUNDS” (Kansas State University Research Foundation, priority 2019, published 2022):
Several values for one entry are separate records, joined by “and”; a condition that tells them apart may be missing. Equal values may be shown once. Read-outs that look alike come from different tables or passages of the source. Square brackets hold non-standard residues; d marks the D form. Ends that are not written are not given here. Peptide text beside a SMILES is read from it. Oic = O=C(O)[C@@H]1C[C@@H]2CCCC[C@@H]2N1; Phe(4-Cl) = N[C@@H](Cc1ccc(Cl)cc1)C(=O)O; Phe(4-F) = N[C@@H](Cc1ccc(F)cc1)C(=O)O; Hyp = O=C(O)[C@@H]1C[C@@H](O)CN1; β3hF = N[C@H](CC(=O)O)Cc1ccccc1

What was measured:
[1] = molecular target: T1, varroa mite proctolin receptor (VdProctR) (Varroa destructor, UniProt A0A7T1TE40); test: Receptor activity assay: luminescence in cells transiently transfected with varroa mite proctolin receptor; type: cell-based; settings: for Activity at high concentrations compared with proctolin: at 1 μM and 10 μM; for EC50: varroa mite proctolin receptor
T1 sequence (A0A7T1TE40 1-530): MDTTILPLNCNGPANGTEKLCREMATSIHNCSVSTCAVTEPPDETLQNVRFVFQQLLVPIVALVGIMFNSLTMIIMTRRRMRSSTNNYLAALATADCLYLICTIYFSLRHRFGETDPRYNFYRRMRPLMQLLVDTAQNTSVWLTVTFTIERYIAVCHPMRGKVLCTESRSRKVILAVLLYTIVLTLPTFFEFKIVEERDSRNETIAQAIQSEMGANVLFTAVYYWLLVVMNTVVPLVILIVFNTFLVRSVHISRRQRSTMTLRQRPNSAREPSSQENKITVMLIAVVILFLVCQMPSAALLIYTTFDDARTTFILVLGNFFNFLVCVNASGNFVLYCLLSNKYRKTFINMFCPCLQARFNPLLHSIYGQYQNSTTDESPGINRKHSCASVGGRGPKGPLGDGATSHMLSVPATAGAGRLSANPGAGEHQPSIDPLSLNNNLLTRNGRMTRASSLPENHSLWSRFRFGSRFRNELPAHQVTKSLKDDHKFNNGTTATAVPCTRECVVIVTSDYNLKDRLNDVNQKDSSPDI
Protocol: (§1) Approximately thirty hours after transfection, the cells were collected and preincubated with coelenterazine h for the functional assay. The ligands in serial dilutions were loaded into 96-well opaque plates. Cells treated with coelenterazine h were injected into each well on an Orion microplate luminometer (Berthold) luminescent plate reader. The luminescence was measured for 20 seconds immediately after the cell injections. Data analyses were performed to determine the accumulated luminescence value for 20 seconds after extraction of blank-well luminescence. A dose-response curve was generated and the EC50 (50% effective concentration) was calculated in Origin 7 (OriginLab).

Varroa mites [2] = test: Injection of compound into the body cavity of varroa mites (excretion); type: in vivo, Varroa destructor; settings: ~5 nL of 200 μM
From the text: Micro-glass electrodes were used for the injections using the pressure injection system (Dagan PMI-200). All injected animals were within 5 hr after the collections as described above.

worker honey bees = test: Injection into the thorax of worker honey bees (negative effects); type: in vivo, honey bee; settings: injection of 50 nL at 200 μM into the thorax, 24-hour observation, n=4
Protocol: (§2) Honey bee FMRFamide receptor was cloned and expressed in the same system as described for the procotolin receptor. […] Potential effects of the peptidomimetics 2439, 2334, 2336, Ac-2442, and H2O control were tested by injections of the compounds into the thorax of worker honey bees.

Varroa mites [3] = test: Varroa mite toxicity test (forced feeding, 200 nL drop on the gnathosoma; paralysis/death counted); type: in vivo, Varroa destructor; settings: 48-hour treatment, feeding assay
Protocol: Varroa mite toxicity test: Adult female Varroa mites were collected using a sugar roll method from honey bee hives located at the East Campus apiary of the University of Nebraska (Lincoln, Nebr. USA). The hives were not treated with chemicals for honey bee parasites or pathogens. The mites were sorted in the laboratory with a paint brush and tested within 4 h post collection. The mites were placed in 9 cm diameter Petri dishes (Fisher Scientific) lined with filter paper. The dorsal side of the mites was secured to a strip of tape placed on the filter paper. Ten mites were secured to the tape in each dish and three dishes were used for each treatment (i.e., 30 mites/treatment). The peptide mimics were prepared in autoclaved ddH2O to a concentration of 0.1 nM for 2334, 2336, and Ac-2442 and 3 nM for 2326. Each peptide mimic was delivered as a 200 nL aliquot to the gnathosoma of the mites with autoclaved ddH2O serving as the untreated control. Following exposure to the peptide mimics, the number of affected (i.e., dead and/paralyzed) was observed and recorded at 1, 2, 6, 12, 24, and 48 h. The percent effect for each treatment was analyzed using a one-way analysis of variance (ANOVA) with a Tukey's post-hoc test (GraphPad Prism, La Jolla, Calif.; p<0.05).
In the continued bioassay (FIG. 4 and FIG. 5), the toxicities were assessed by counting paralysis/death in feeding assay. […]

honey bee queen = settings: injection, 1 μL containing 1 μg; cited from earlier work
Bombyx mori larval gut = settings: cited from earlier work
[4] = system: empty vector transfected cells; test: Receptor activity assay, negative control: cells transfected with empty vector; type: cell-based; settings: 10 μM proctolin
Protocol: as §1, with “Receptor activity assay: […] Approximately” for “Approximately”, “[…] The receptor” for “A dose-response curve”, “also tested with a variety of peptide analogues” for “generated”, “peptidomimetics.” for “the EC50 (50% effective concentration) was calculated in Origin 7 (OriginLab).”

[5] = system: honey bee FMRFamide receptor; test: Activity on the honey bee FMRFamide receptor expressed in the same system; type: cell-based; settings: in words
Protocol: as §1, §2

[6] = first set of experiments, EC50 relative to proctolin (0.22 nM)
[7] = first set of experiments, read-out: EC50
[8] = EC50 (nM), first set of experiments
[9] = EC50 (nM), second set of peptidomimetics
[10] = second set, EC50 relative to proctolin (14.19 nM)

For CC(C)C[C@H](NC(=O)[C@H](Cc1ccc(O)cc1)NC(=O)[C@@H](N)CCCNC(=N)N)C(=O)N1C[C@H](O)C[C@H]1C(=O)N[C@H](C(=O)O)[C@@H](C)O [Analog 2334, RYL[HyP]T] (H-RYL[Hyp]T-OH; N-terminus assumed), the “Activity at high concentrations compared with proctolin” value [1] was “higher than that of proctolin”, the Fold change [1, 6] was 2.5 and 2.45 and the EC50 [1, 7] was 0.54 nM. The “Agonist activity / potency on the Varroa mite proctolin receptor, in words” value ([1]; in words) was “strong agonists” and the “Individuals with immediate excretion of a drop of fecal material through the anus” value (Varroa mites [2]) was 3/4.

For CC(C)C[C@H](NC(=O)[C@H](Cc1ccc(O)cc1)NC(=O)[C@@H](N)CCCNC(=N)N)C(=O)N1[C@H](C(=O)N[C@H](C(=O)O)[C@@H](C)O)C[C@@H]2CCCC[C@@H]21 [Analog 2336, RYL[Oic]T] (H-RYL[Oic]T-OH; N-terminus assumed), the “Negative effects in worker honey bees” value (worker honey bees) was “did not show any negative effects”, the “Activity at high concentrations compared with proctolin” value [1] was “higher than that of proctolin” and the Fold change [1, 6] was 5.95. The EC50 [1, 7] was 1.3 nM and 1.31 nM, the “Agonist activity / potency on the Varroa mite proctolin receptor, in words” value ([1]; in words) was “strong agonists” and the “Percent effect (paralyzed or dead mites)” value (Varroa mites [3]) was 100%.

For CC(C)C[C@H](NC(=O)C[C@H](Cc1ccccc1)NC(=O)[C@@H](N)CCCNC(=N)N)C(=O)N1C[C@H](O)C[C@H]1C(=O)N[C@H](C(=O)O)[C@@H](C)O [Analog 2338, R[β3F]L[HyP]T] (H-R[β3hF]L[Hyp]T-OH), the “Factor by which potency exceeds that of the corresponding analog with only a single replacement at Y2” value ([1]; 2338 vs 2333, 2337 vs 2329) was 8, the EC50 [1, 8] was 26 nM and 26.3 nM and the Fold change [1, 6] was 119.59. The “Efficacy (maximal response)” value ([1]; in words) was “full efficacy”.

In the case of CC(C)C[C@H](NC(=O)[C@@H](Cc1ccc(O)cc1)NC(=O)[C@@H](N)CCCNC(=N)N)C(=O)N1[C@H](C(=O)N[C@H](C(=O)O)[C@@H](C)O)C[C@@H]2CCCC[C@@H]21 [Analog 2340, R[dY]L[Oic]T] (H-R[dY]L[Oic]T-OH; N-terminus assumed), the EC50 [1, 8] is reported as 278 nM, the Fold change [1, 6] is reported as 1262.27 and the “Potency compared with 2337 and 2338” value ([1]; in words) is reported as “less potent than 2337 and 2338 by approximately an order of magnitude”.

Work on CC(C)C[C@H](NC(=O)[C@H](Cc1ccc(F)cc1)NC(=O)[C@@H](N)CCCNC(=N)N)C(=O)N1CCC[C@H]1C(=O)N[C@H](C(=O)O)[C@@H](C)O [Analog 2438, R[Phe(4-F)]LPT] (H-R[Phe(4-F)]LPT-OH) yielded an EC50 [1, 9] of 7.55 nM and a Fold change [1, 10] of 0.53.

In the case of CC(C)C[C@H](NC(=O)[C@H](Cc1ccc(Cl)cc1)NC(=O)[C@@H](N)CCCNC(=N)N)C(=O)N1CCC[C@H]1C(=O)N[C@H](C(=O)O)[C@@H](C)O [Analog 2440, R[Phe(4-Cl)]LPT] (H-R[Phe(4-Cl)]LPT-OH), the EC50 [1, 9] is reported as 7.03 nM and the Fold change [1, 10] is reported as 0.50.

With CC(C)C[C@H](NC(=O)[C@H](Cc1ccc(F)cc1)NC(=O)[C@@H](N)CCCNC(=N)N)C(=O)N1C[C@H](O)C[C@H]1C(=O)N[C@H](C(=O)O)[C@@H](C)O [Analog 2441, R[Phe(4-F)]L[HyP]T] (H-R[Phe(4-F)]L[Hyp]T-OH; N-terminus and C-terminus assumed) the EC50 [1, 9] was 9.93 nM, the “Activity compared with proctolin, in words” value ([1]; second set, Y2 phenylalanine variants) was “higher activity than proctolin” and the Fold change [1, 10] was 0.70.

Compound GRYLPT [Analog G1, GRYLPT] has an EC50 [1, 8] of 30.9 nM and a Fold change [1, 6] of 140.36.

Work on RGYLPT [Analog G2, RGYLPT] yielded an EC50 [1, 8] of 15900 nM and a Fold change [1, 6] of 72095.45.

With RYGLPT [Analog G3, RYGLPT] the EC50 [1, 8] was 31400 nM and the Fold change [1, 6] was 142868.18.

Work on RYLGPT [Analog G4, RYLGPT] yielded an EC50 [1, 8] of 1090 nM and a Fold change [1, 6] of 4954.55.

In the case of RYLPGT [Analog G5, RYLPGT], the EC50 [1, 8] is reported as 1160 nM and the Fold change [1, 6] is reported as 5259.09.

For RYLPT [Proctolin, RYLPT], the “Egg-laying activity of the queen” value (honey bee queen) is listed as “increased the egg-laying activity of the queen”, the “Concentration required for hindgut contraction” value (Bombyx mori larval gut; Bombyx mori larval hindgut) is listed as 180 µM and the “Concentration required in the midgut to slightly reduce leucine uptake” value (Bombyx mori larval gut; Bombyx mori larval midgut) is listed as 10 µM. For the same compound, the EC50 [1, 8] was 0.22 nM, the EC50 [1, 9] was 14.2 nM and the Fold change [1, 6] was 1.00. The Fold change [1, 10] was 1.00, the “Activity on empty vector transfected cells” value [4] was “did not show any activity” and the “Activity on the honey bee FMRFamide receptor” value [5] was “no activities”.

In the case of RYLPTG [Analog G6, RYLPTG], the EC50 [1, 8] is reported as 478 nM, the “Activity at high concentrations compared with proctolin” value [1] is reported as “higher than that of proctolin” and the Fold change [1, 6] is reported as 2175.00.
